The values below come from patent US6855730B2, “3-methylidenyl-2-indolinone modulators of protein kinase” (Sugen, Inc., priority 1998, dated 2005).

The structures appear in SMILES notation.

EGFR, sequence (P00533 25-1210): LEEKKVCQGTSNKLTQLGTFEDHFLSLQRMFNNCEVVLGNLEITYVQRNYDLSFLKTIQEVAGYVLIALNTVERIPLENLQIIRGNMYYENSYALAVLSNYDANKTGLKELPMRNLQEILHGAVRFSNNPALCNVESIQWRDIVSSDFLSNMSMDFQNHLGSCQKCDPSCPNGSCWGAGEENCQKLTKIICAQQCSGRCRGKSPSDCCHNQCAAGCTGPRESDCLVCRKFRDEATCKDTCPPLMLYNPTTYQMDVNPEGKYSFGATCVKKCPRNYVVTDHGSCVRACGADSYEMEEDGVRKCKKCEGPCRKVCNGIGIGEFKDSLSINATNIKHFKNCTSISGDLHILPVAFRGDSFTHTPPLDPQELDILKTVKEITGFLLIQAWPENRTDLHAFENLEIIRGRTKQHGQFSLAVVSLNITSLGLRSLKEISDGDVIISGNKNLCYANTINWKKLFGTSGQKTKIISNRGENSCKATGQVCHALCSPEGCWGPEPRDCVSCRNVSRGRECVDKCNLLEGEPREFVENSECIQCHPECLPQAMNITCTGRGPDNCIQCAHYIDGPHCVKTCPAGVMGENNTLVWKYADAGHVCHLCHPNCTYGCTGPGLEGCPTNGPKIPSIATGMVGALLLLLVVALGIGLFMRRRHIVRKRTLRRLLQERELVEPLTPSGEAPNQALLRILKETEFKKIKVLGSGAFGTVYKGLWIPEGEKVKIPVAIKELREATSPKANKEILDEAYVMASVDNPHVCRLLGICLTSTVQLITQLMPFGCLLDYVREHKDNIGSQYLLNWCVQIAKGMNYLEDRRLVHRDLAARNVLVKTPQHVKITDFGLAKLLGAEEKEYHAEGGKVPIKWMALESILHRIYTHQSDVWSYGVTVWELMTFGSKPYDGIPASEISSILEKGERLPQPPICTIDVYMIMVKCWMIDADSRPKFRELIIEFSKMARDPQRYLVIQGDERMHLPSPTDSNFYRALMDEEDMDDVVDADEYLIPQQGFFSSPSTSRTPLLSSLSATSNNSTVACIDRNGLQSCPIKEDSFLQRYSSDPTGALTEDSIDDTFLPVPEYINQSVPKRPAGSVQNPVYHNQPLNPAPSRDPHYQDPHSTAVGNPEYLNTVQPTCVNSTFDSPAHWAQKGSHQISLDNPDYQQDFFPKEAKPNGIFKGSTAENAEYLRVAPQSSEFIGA

The assay addresses EGFR (Homo sapiens, UniProt P00533). Description: EGFR assay (cellular ELISA, NIH 3T3/C7 cells). Format: cell-based. Further details: expressed in transfected cells; host or cells: NIH 3T3/C7. Conditions: read-out: cell EGF IC50. As for the experimental part: EGF Receptor kinase activity in cells genetically engineered to express human EGF-R can be measured as described below:
Materials and Reagents. • a. […] 05-101 (UBI) (a monoclonal antibody recognizing an EGFR extracellular domain). • c. Anti-phosphotyosine antibody (anti-Ptyr) (polyclonal). • d. Detection antibody: Goat anti-rabbit IgG horse radish peroxidase conjugate, TAGO, Inc. Burlingame, Calif. • e. TBST buffer:
• Keep solution in dark at 4° C. until used. • h. Stock reagents of:
Pre-coat ELISA Plate • 1. […] Coated plates are good for up to 10 days when stored at 4° C. • 2. On day-of use, remove coating buffer and replace with blocking buffer (5% Carnation Instant NonFat Dry Milk in PBS). Incubate the plate, shaking, at room temperature (about 23° C. to 25° C.) for 30 minutes. Just prior to use, remove blocking buffer and wash plate 4 times with TBST buffer.
Seeding Cells • 1. […] Choose dishes having 80-90% confluence for the experiment. Trypsinize cells and stop reaction by adding 10% CS DMEM medium. Suspend cells in DMEM medium (10% CS DMEM medium) and centrifuge once at 1000 rpm at room temperature for 5 minutes. • 3. Resuspend cells in seeding medium (DMEM, 0.5% bovine serum), and count the cells using trypan blue. Viability above 90% is acceptable. Seed cells in DMEM medium (0.5% bovine serum) at a density of 10,000 cells per well, 100 μl per well, in a 96 well microtiter plate. Incubate seeded cells in 5% CO2 at 37° C. for about 40 hours.
Assay Procedures. • 1. Check seeded cells for contamination using an inverted microscope. Dilute test compounds stock (10 mg/ml in DMSO) 1:10 in DMEM medium, then transfer 5 μl to a test well for a test compounds drug dilution of 1:200 and a final DMSO concentration of 1%. Control wells receive DMSO alone. Incubate in 5% CO2 at 37° C. for one hour. • 2. Prepare EGF ligand: dilute stock EGF in DMEM so that upon transfer of 10 μl dilute EGF (1:12 dilution), 25 nM final concentration is attained. • 3. Prepare fresh 10 ml HNTG* sufficient for 100 μl per well wherein HNTG* comprises: HNTG stock (2.0 ml), milli-Q H2O (7.3 ml), EDTA, 100 mM, pH 7.0 (0.5 ml), Na3VO4 0.5 M (0.1 ml) and Na4(P2O7), 0.2 M (0.1 ml). • 4. Place on ice. • 5. After two hours incubation with drug, add prepared EGF ligand to cells, 10 μl per well, to yield a final concentration of 25 nM. Control wells receive DMEM alone. Incubate, shaking, at room temperature, for 5 minutes. • 6. Remove test compound, EGF, and DMEM. Wash cells twice with PBS. Transfer HNTG* to cells, 100 μl per well. Place on ice for 5 minutes. Meanwhile, remove blocking buffer from other ELISA plate and wash with TBST as described above. • 7. With a pipette tip securely fitted to a micropipettor, scrape cells from plate and homogenize cell material by repeatedly aspirating and dispensing the HNTG* lysis buffer. Transfer lysate to a coated, blocked, and washed ELISA plate. Incubate shaking at room temperature for one hour. • 8. Remove lysate and wash 4 times with TBST. Transfer freshly diluted anti-Ptyr antibody to ELISA plate at 100 μl per well. Incubate shaking at room temperature for 30 minutes in the presence of the anti-Ptyr antiserum (1:3000 dilution in TBST). • 9. Remove the anti-Ptyr antibody and wash 4 times with TBST. Transfer the freshly diluted TAGO 30 anti-rabbit IgG antibody to the ELISA plate at 100 μl per well. Incubate shaking at room temperature for 30 minutes (anti-rabbit IgG antibody: 1:3000 dilution in TBST). • 10. Remove detection antibody and wash 4 times with TBST. Transfer freshly prepared ABTS/H2O2 solution to ELISA plate, 100 μl per well. Incubate at room temperature for 20 minutes. ABTS/H2O2 solution: 1.2 μl 30% H2O2 in 10 ml ABTS stock. • 11. Stop reaction by adding 50 μl 5N H2SO4 (optional), and determine O.D. at 410 nm. • 12. The maximal phosphotyrosine signal is determined by subtracting the value of the negative controls from the positive controls. […]
On the technique in general: ELISA stands for enzyme-linked immunosorbent assay.
Turning to `COc1cc(C=C2C(=O)Nc3ccccc32)c(-c2ccccc2OC)cc1OC` [Example 49, 3-(4,5,2′-Trimethoxybiphenyl-2-ylmethylene)-1,3-dihydroindol-2-one], the IC50 (as a rule, the concentration at which inhibition is half-maximal) is more than 100 µM.

For `COc1ccc(/C=C2\C(=O)Nc3cccc(C)c32)cc1C1CCCC1` [Example 48, 3-(3-Cyclopentyl-4-methoxybenzylidene)-4-methyl-1,3-dihydroindol-2-one], the IC50 is more than 100 µM.

With `COc1ccc(/C=C2/C(=O)Nc3ccccc32)cc1C1CCCC1` [Example 10, 3-(3-Cyclopentyl-4-methoxybenzylidene)-1,3-dihydroindol-2-one], the IC50 turned out to be 56.1 µM.

As to `COc1ccc(/C=C2/C(=O)Nc3ccc(Cl)cc32)cc1C1CCCCC1` [Example 51, 5-Chloro-3-(3-cyclohexyl-4-methoxybenzylidene)-1,3-dihydroindol-2-one], the IC50 is more than 100 µM.

Regarding `COc1c(C(C)C)cc(/C=C2/C(=O)Nc3ccc(C)cc32)cc1C(C)C` [Example 19, 3-(3,5-Diisopropyl-4-methoxybenzylidene)-5-methyl-1,3-dihydroindol-2-one], the IC50 was found to be 34.8 µM.

In the case of `Cc1cccc2c1/C(=C/c1ccc3c(c1)CCC(C)(C)O3)C(=O)N2` [Example 41, 3-(2,2-Dimethylchroman-6-ylmethylene)-4-methyl-1,3-dihydroindol-2-one], the IC50 is more than 100 µM.

Regarding `COc1cc(C)c(/C=C2/C(=O)Nc3ccc(F)cc32)cc1C(C)C` [Example 30, 5-Fluoro-3-(5-isopropyl-4-methoxy-2-methyl-benzylidene)-1,3-dihydroindol-2-one], the IC50 is 63.4 µM.

Turning to `Cc1cccc2c1/C(=C/c1cc3ccccc3[nH]1)C(=O)N2` [Example 166, 3-(1H-indol-2-ylmethylene)-4-methyl-1,3-dihydro-indol-2-one], the IC50 was more than 100 µM.

For `COc1ccc2c(c1)/C(=C\c1cc(C(C)C)c(OC)c(C(C)C)c1)C(=O)N2` [Example 17, 3-(3,5-Diisopropyl-4-methoxybenzylidene)-5-methoxy-1,3-dihydroindol-2-one], the IC50 is 68 µM.

As to `COc1cc(C)c(/C=C2/C(=O)Nc3ccc(Br)cc32)cc1C(C)C` [Example 36, 5-Bromo-3-(5-isopropyl-4-methoxy-2-methyl-benzylidene)-1,3-dihydroindol-2-one], the IC50 turned out to be 66.8 µM.

Consider `COc1c(C(C)C)cc(/C=C2/C(=O)Nc3ccc(C(C)=O)cc32)cc1C(C)C` [Example 5, 5-Acetyl-3-(3,5-diisopropyl-4-methoxybenzylidene)-1,3dihydroindol-2-one], for which the IC50 came to 21.5 µM.

In the case of `COc1ccc(/C=C2/C(=O)Nc3ccccc32)cc1C1CCCCC1` [Example 12, 3-(3-Cyclohexyl-4-methoxybenzylidene)-1,3-dihydroindol-2-one], the IC50 was 71.9 µM.

As for `COc1ccccc1-c1ccc2c(c1)NC(=O)/C2=C\c1[nH]c(C)cc1CCC(=O)O` [Example 109, 3-{2-[6-(2-Methoxyphenyl)-2-oxo-1,2-dihydroindol-3-ylidenemethyl]-5-methyl-1H-pyrrol-3-yl}-propionic acid], the IC50 is more than 100 µM.

For `CC1(C)CCc2cc(/C=C3/C(=O)Nc4ccc(Cl)cc43)ccc2O1` [Example 15, 5-Chloro-3-(2,2-dimethyl-chroman-6-ylmethylene)-1,3-dihydroindol-2-one], the IC50 worked out at 46.5 µM.

For the compound `CCOC(=O)c1c(C)[nH]c(/C=C2\C(=O)Nc3cc(-c4ccccc4OC)ccc32)c1CCC(=O)O` [Example 110, 4-(2-Carboxyethyl)-5-[6-(2-methoxyphenyl)-2-oxo-1,2-dihydro-indol-3-ylidenemethyl]-2-methyl-1H-pyrrol-3-yl-carboxylic acid ethyl ester], the IC50 was more than 100 µM.

As for `COc1ccc(/C=C2/C(=O)Nc3ncccc32)cc1C(C)C` [Example 70, 3-(3-Isopropyl-4-methoxybenzylidene)-1,3-dihydropyrrolo[2,3-b]pyridine-2-one], the IC50 was more than 100 µM.

For `COc1c(C)cc(/C=C2/C(=O)Nc3ccc(Cl)cc32)cc1C` [Example 21, 5-Chloro-3-(4-methoxy-3,5-dimethylbenzylidene)-1,3-dihydroindol-2-one], the concentration for half-maximal inhibition (IC50) was found to be 18.5 µM.

Regarding `CCOC(=O)c1c(C)[nH]c(/C=C2\C(=O)Nc3cc(-c4ccc(F)cc4)ccc32)c1CCC(=O)O` [Example 108, 4-(2-Carboxyethyl)-5-[6-(4-fluorophenyl)-2-oxo-1,2-dihydro-indol-3-ylidenemethyl]-2-methyl-1H-pyrrole-3-carboxylic acid ethyl ester], the concentration for half-maximal inhibition (IC50) is more than 100 µM.

Consider `COc1cccc(-c2cc(OC)c(OC)cc2/C=C2/C(=O)Nc3ccc(Cl)cc32)c1` [Example 61, 5-Chloro-3-(4,5-3′-Trimethoxybiphenyl-2-ylmethylene)-1,3-dihydroindol-2-one], for which the IC50 was more than 100 µM.

On to `COc1ccc(/C=C2/C(=O)Nc3cc(NC(C)=O)ccc32)cc1-c1ccsc1` [Example 18, N-[3-(4-Methoxy-3-thiophene-3-ylbenzylidene)-2-oxo-2,3-dihydro-1H-indol-6-yl]-acetamide], for which the IC50 was more than 100 µM.

On to `COc1ccc(/C=C2/C(=O)Nc3ccc(F)cc32)cc1C1CCCCC1` [Example 43, 3-(3-Cyclohexyl-4-methoxybenzylidene)-5-fluoro-1,3-dihydroindol-2-one], for which the IC50 was more than 100 µM.

`COc1ccc(/C=C2/C(=O)Nc3ccc(Cl)cc32)cc1-c1ccccc1` [Example 67, 5-Chloro-3-(6-methoxybiphenyl-3-ylmethylene)-1,3-dihydroindol-2-one]: the IC50 is more than 100 µM.

As for `COc1ccc(/C=C2/C(=O)Nc3ccc(F)cc32)cc1C(C)C` [Example 44, 5-Fluoro-3-(3-isopropyl-4-methoxybenzylidene)-1,3-dihydroindol-2-one], the IC50 was 76.9 µM.

Regarding `Cc1cccc2c1/C(=C/c1ccc3c(c1)CCO3)C(=O)N2` [Example 69, 3-(2,3-Dihydrobenzofuran-5-ylmethylene)-4-methyl-1,3-dihydroindol-2-one], the 50% inhibitory concentration (IC50) is more than 100 µM.

On to `CC(=O)Nc1ccc2c(c1)NC(=O)/C2=C/c1ccc(OCCN2CCOCC2)c(C2CCCCC2)c1` [Example 16, N-{3-[3-Cyclohexyl-4-(2-morpholin-4-ylethoxy)-benzylidene]-2-oxo-2,3-dihydro-1H-indol-6-yl}-acetamide], for which the IC50 came out at 44.5 µM.

Regarding `COc1c(C(C)C)cc(/C=C2/C(=O)Nc3ccc(N)cc32)cc1C(C)C` [Example 20, 5-Amino-3-(3,5-diisopropyl-4-methoxy-benzylidene)-1,3-dihydroindol-2-one], the IC50 was 78.1 µM.

For `COC(=O)c1ccc2c(c1)/C(=C\c1cc(C(C)C)c(OC)c(C(C)C)c1)C(=O)N2` [Example 6, 3-(3,5-Diisopropyl-4-methoxybenzylidene)-2-oxo-2,3-dihydro-1H-indole-5-carboxylic acid methyl ester], the IC50 was 40.5 µM.

For the compound `CC(C)c1cc(/C=C2/C(=O)Nc3ccc(Br)cc32)cc(C(C)C)c1OCCN1CCOCC1` [Example 57, 5-Bromo-3-[3,5-diisopropyl-4-(2-morpholin-4-ylethoxy)benzylidene]-1,3-dihydroindol-2-one], the IC50 was more than 100 µM.

Consider `COc1ccc(/C=C2/C(=O)Nc3ccc(Cl)cc32)cc1-c1cccnc1` [Example 60], for which the IC50 is more than 100 µM.
